Consider 8 molecules from article PMC7412550 (Viruses, 2020).

In data set [1] the test system is HIV-1 NL4.3 wt. The note with it: for SI (selectivity index): ratio between the CC50 and the EC50; for EC50: read-out: HIV-1 wt MT EC50, HIV-1 NL4.3 wt, MT4 cells, MTT, 5 days post infection, mean and SD of three experiments.
The test system of data set [2] is MT4 cells. The note with it: read-out: MT4 CC50; non-infected MT4 cells, MTT.
For data set [3], the target named is T1, R448A RT RNase H (Human immunodeficiency virus type 1 group M subtype B, UniProt P04585, R1035A). The arrangement: method as in ref 26,27 = [26]. The settings on record: RNase H function; cited from earlier work.
Data set [4] deals with T2, R557A RT RNase H (Human immunodeficiency virus type 1 group M subtype B, UniProt P04585, R1144A). Set-up: method as in ref 26,27 = [26]. The note with it: RNase H function; cited from earlier work.
In data set [5] the target is Q475A RT RNase H (Human immunodeficiency virus type 1 group M subtype B, UniProt P04585, Q1062A). Description: HIV-1 DNA polymerase-independent RNase H activity, Q475A RT. The settings on record: RNase H function; p-value = 0.0008.
For data set [6], the target named is T1, R448A RT RNase H. Description: HIV-1 DNA polymerase-independent RNase H activity, R448A RT. The note with it: RNase H function; p-value 0.5545.
The target of data set [7] is T2, R557A RT RNase H. Description: HIV-1 DNA polymerase-independent RNase H activity, R557A RT. The note with it: RNase H function; p-value 0.9682.
Data set [8] is described as follows: in vitro. The settings on record: human.
The test system of data set [9] is VSV/HIV-1GFP. The class given is cell-based.
Data set [10] deals with HIV-1 RT-associated RDDP activity (wt RT) (Human immunodeficiency virus type 1 group M subtype B, UniProt P04585). Description: HIV-1 RNA-dependent DNA polymerase (RDDP) activity. The data set is classed as biochemical.
Data set [11] concerns the target HIV-1 RT RNase H. The settings on record: Table S2; biologic data previously reported; cited from earlier work.
The test system of data set [12] is HIV-1 IN. Set-up: method as in ref 30 = [30]. The note with it: enzymatic assay; cited from earlier work.
Data set [13] deals with HIV-1 RT-associated RNase H (wt RT) (Human immunodeficiency virus type 1 group M subtype B, UniProt P04585). In words: HIV-1 DNA polymerase-independent RNase H activity, wt RT.

With `CCOC(=O)C(=O)CC(=O)/C=C/c1cccn1Cc1ccccc1Cl` [RDS1759], in [1], the “SI (selectivity index)” value stood at 4.7 and the EC50 turned out to be 8.2 ± 0.9 µM. For the same molecule, the CC50 in data set [2] worked out at 39 ± 4.4 µM. The “activity against R448A HIV-1 RT” value in data set [3] was “fully active”. Moreover, in data set [4], the “activity against R557A HIV-1 RT” value is reported as “fully active”. Besides, in data set [5], the “potency of inhibition on Q475A RT compared to wt RT” value is on record as “significantly lost its potency”. Besides, the “potency of inhibition on R448A RT compared to wt RT” value in data set [6] is “not significantly affected”. Moreover, the “potency of inhibition on R557A RT compared to wt RT” value in data set [7] is “not significantly affected”.

In the case of `O=C1Nc2ccc(Cl)cc2[C@@](C#CC2CC2)(C(F)(F)F)O1` [EFV, efavirenz], in data set [1], the “SI (selectivity index)” value is above 6.25. This molecule also displayed a CC50 in data set [8] above 0.31 µM.

Turning to `O=C(N/N=C/c1ccccc1O)c1cc(O)c(O)c(O)c1` [Compound 13, N’-(2-hydroxy-benzylidene)-3,4,5-trihydroxybenzoylhydrazone], the “time after infection at which activity is lost (time-of-addition)” value in [9] turned out to be 6 h. For the same molecule, the “inhibitory effect on RDDP activity at 25 μM” value in data set [10] (25 μM) is “no inhibitory effect”. The “fold less potent against RT polymerase activity than RNase H function” value in data set [10] (RDDP vs RNase H) is on record as above 20 fold. Also, the IC50 is 81 µM in data set [10] (wt RT, inhibitor and substrate added before the enzyme (competition)); 2.32 ± 0.75 µM in [11]; 6.9 µM in data set [13] (RNase H IC50 against wt enzyme (site-directed mutagenesis study, Figure 4), determined in parallel with mutants); 3.6 µM in [13] (RT-associated RNase H activity IC50 (comparative inhibition, Figure 2B), inhibitor and substrate added before the enzyme (competition)). The “SI (selectivity index)” value in data set [1] is 6.1. Also, the EC50 in data set [1] is 10.1 ± 4.7 µM. Moreover, the “activity against HIV-1 IN” value in data set [12] is given as “inactivity”. Further, the CC50 in data set [8] is 61.5 ± 2.2 µM.

For `Cc1ccnc2c1NC(=O)c1cccnc1N2C1CC1` [NVP, nevirapine], the “SI (selectivity index)” value in data set [1] was above 5.5. The molecule further registered a CC50 in data set [8] above 3.7 µM.

For the molecule `Cc1nnc(C(=O)NC(C)(C)c2nc(C(=O)NCc3ccc(F)cc3)c(O)c(=O)n2C)o1` [RAL, raltegravir], the time-of-addition behaviour result in data set [9] is reported as “retained its potency over time”. In [8], this molecule showed a CC50 above 2.25 µM.

As to `O=C(N/N=C/c1cc(O)c(O)cc1O)c1cc(O)c(O)c(O)c1` [Compound 21], the time-of-addition behaviour entry in data set [9] is “retained its potency over time”. The “SI (selectivity index)” value in data set [1] was 6.4. Also, the IC50 in [11] was 0.62 ± 0.1 µM. The “activity against HIV-1 IN” value in data set [12] is “inhibited”. The molecule further registered a CC50 in [8] of 31.8 ± 0.4 µM.

On to `CC(C)c1ccc(O)c(=O)c(O)c1` [beta-thujaplicinol], for which the “activity against R448A HIV-1 RT” value in [3] is given as “fully active”. Further, the “activity against R557A HIV-1 RT” value in data set [4] is “fully active”.

`Cc1cn([C@H]2C[C@H](N=[N+]=[N-])[C@@H](CO)O2)c(=O)[nH]c1=O` [AZT, azidothymidine]: the “SI (selectivity index)” value in data set [1] is listed as above 500. In data set [8], this molecule returned a CC50 above 3.7 µM.
